Reference: article PMC11926788, “Effect of SSR504734, a Selective Glycine Transporter Type 1 Inhibitor, on Seizure Thresholds, Neurotransmitter Levels, and Inflammatory Markers in Mice” (ACS Chemical Neuroscience, 2025)
Read-outs that look alike come from different tables or passages of the source. Each block holds one molecule with its values, some of them ahead of it.

How the values were obtained:
[1] = test system: tonic hindlimb extension in the MEST test in rats; conditions: cited from earlier work
[2] = test system: tonic hindlimb extension in the MEST test in mice; conditions: cited from earlier work; for effect on threshold for tonic hindlimb extension: MEST test in mice
[3] = Chimney test (motor coordination); assay type: in vivo, mice; conditions: 150 mg/kg i.p.
Protocol: The impact of SSR504734 on motor coordination in mice was evaluated by using the chimney test. Each animal was individually placed inside a transparent Plexiglas tube with an inner diameter of 3 cm and a length of 30 cm. The tube was horizontally positioned on a table and shifted vertically once the mouse reached the opposite end. Within a 60 s time frame, the mouse was required to climb backward to escape from the tube. In order to minimize the number of animals used, a chimney test was carried out shortly before seizure tests.
(§1) Table S2. Time-course effect of SSR5504734 on neuromuscular strength and motor […]
(§2) Group Neuromuscular strength Impairment of motor
(§3) SSR504734 was dissolved in normal saline and injected i.p. at the dose of 30 mg/kg. Control animals received saline. The data are expressed as the mean ± SD of grip strengths measured in millinewtons per gram of mouse body weight (mN/g) from the grip-strength test assessing […]
(§4) coordination impairment in the chimney test. Each experimental group consisted of 12 animals. The grip-strength test results were analyzed using a one-way ANOVA with Dunnett’s post hoc test, while the data from the chimney test were statistically evaluated using Fisher’s exact probability test. *p<0.05 vs. control group.
(§5) Table S3. Effect of acute and 14-day treatment with SSR504734 on neuromuscular strength and motor coordination in mice
(§6) In acute studies, SSR504734 and sodium valproate (VPA; positive control) were injected i.p.
(§7) 60 and 15 min before the test, respectively. In subchronic studies, SSR504734 and VPA were injected i.p. every 24 h for 14 days. The last administration was made 60 and 15 min before the tests, respectively. Control animals received saline. Each experimental group consisted of 12 animals. The grip-strength test results were analyzed using a one-way ANOVA with […]
(§8) Fisher’s exact probability test.

[4] = test system: tonic hindlimb extension in the MEST test in mice; assay: Maximal electroshock seizure threshold (MEST) test; assay type: in vivo; conditions: 150 mg/kg i.p.
Protocol: A sinusoidal current alternation was delivered via saline-soaked transcorneal electrodes. Before stimulation, an ocular anesthetic (1% tetracaine hydrochloride solution obtained from Sigma-Aldrich, St. Louis, MO, USA) was administered to each eye of the mice. During stimulation, the mice were manually immobilized in a hand for 3–5 s and immediately relocated to a transparent box for behavioral observation after the stimulation. Hindlimb tonic extension was taken as an end point. Two experimental approaches were employed: (1) the maximal electroshock seizure threshold (MEST) test at varied current intensities and (2) the maximal electroshock (MES) test at a fixed current intensity.
In the MEST test, seizure thresholds were determined using the “up-and-down” method described by Kimball et al.[28] […] Each mouse was stimulated only once.

[5] = Grip strength test (neuromuscular strength); assay type: in vivo, mice; conditions: 150 mg/kg i.p.
Protocol: The effect of SSR504734 on neuromuscular strength was determined using the grip-strength apparatus (BioSeb, Chaville, France). The apparatus consists of a steel wire grid of 8 × 8 cm, connected to an isometric force transducer. Each mouse was held by the tail, allowing it to grasp the grid with its forepaws only and steadily pulled back until it released the grid. The maximum grip strength value (in newtons; N) was measured three times for each animal. The mean force was normalized to body weight and expressed in mN/g ± SD for each experimental group. In order to minimize the number of animals used, a grip-strength test was carried out shortly before seizure tests.
as §1, §2, §3, §4, §5, §6, §7, §8

[6] = test system: i.v. PTZ-induced seizures in mice; assay: Intravenous (i.v.) PTZ seizure threshold test; assay type: in vivo; conditions: VPA 150 mg/kg
Protocol: Mice were individually placed in a plastic restrainer (12 cm long, 3 cm inner diameter), and the lateral vein of each mouse was catheterized using a 27-gauge needle (Sterican, B. Braun Melsungen, Melsungen, Germany). The needle was attached by polyethylene tubing (PE20RW, Plastics One Inc., Roanoke, VA, USA) to a 10 mL plastic syringe containing 1% solution of PTZ in saline (Sigma-Aldrich, St. Louis, MO, USA) and mounted to a syringe pump (model Physio 22, Hugo Sachs Elektronik, Harvard Apparatus GmbH, March-Hugstetten, Germany). Piece of adhesive tape was used to secure the needle. The proper placement of the needle in the vein was verified by the appearance of blood in the tubing. During the test, mice were placed in a transparent box for observation. The PTZ solution was administered to freely moving mice at a constant rate of 0.2 mL/min. The time intervals from the initiation of PTZ infusion to the occurrence of the three following end points, i.e., (1) the first myoclonic twitch, (2) generalized clonic seizure with loss of righting reflex, and (3) forelimb tonus, were recorded. The PTZ infusion was terminated when tonic seizures, which were often fatal for the mice, began. All mice that survived were euthanized immediately. The thresholds were calculated separately for each end point using the following formula: threshold dose of PTZ (mg/kg) = infusion duration (s) × infusion rate (mL/s) × PTZ concentration (mg/mL)/body weight (kg). Seizure threshold was expressed as the amount of PTZ (mg/kg) ± SD (standard deviation) needed to produce the first observable sign of each end point. Each group consisted of 12–15 animals.

[7] = test system: 6 Hz-induced psychomotor seizures in mice; assay: 6 Hz-induced psychomotor seizure threshold test; assay type: in vivo; conditions: SSR504734 any of the doses tested, VPA 150 mg/kg
Protocol: Psychomotor seizures were induced through the application of rectangular pulses (0.2 ms width; 6 pulses per second) for 3 s using a Grass model CCU1 constant current unit coupled to a Grass S48 stimulator (Grass Technologies, Warwick, RI, USA). Stimuli were delivered via saline-soaked transcorneal electrodes. An ocular anesthetic (1% tetracaine hydrochloride) was administered on the animal’s corneas. Mice were restrained manually during stimulation and placed in transparent box immediately for behavioral observation. 6 Hz-induced seizures were characterized by head-nodding, chewing, eye-blinking, twitching of the vibrissae, rearing, stunned posture, forelimb clonus, and Straub tail. The absence of the described features or the return to normal exploratory behavior within 20 s poststimulation was considered as the absence of seizures. The 6 Hz seizure threshold test were conducted on groups of 20 animals stimulated with different current intensities by using the “up-and-down” method described by Kimball et al.[28]
The seizure threshold was quantified as the median current strength (CS50 value with confidence limits for 95% probability), predicting the induction of psychomotor seizures in 50% of the tested animals.

[8] = PAMPA (Gentest Precoated PAMPA Plate System); assay type: in vitro ADME; conditions: ± SD
Protocol: (§9) A series of in vitro ADME-Tox tests were performed for SSR504734 in order to estimate its drugability. The ADME-Tox parameters including permeability, plasma protein binding, metabolic stability, neurotoxicity, and hepatotoxicity were carried out as described previously.[31],[32] The ability of SSR504734 to penetrate through the biological membrane by passive diffusion was estimated by the Gentest Precoated PAMPA Plate System (Corning, Tewksbury, MA) and expressed as the permeability coefficient (Pe). The protein binding analysis was performed by using the commercial TRANSIL^XL PPB test, which mimics in vitro physiological plasma conditions where human serum albumin (HAS) and alpha-1-acid glycoprotein AGP are present in a 24:1 ratio. The human metabolism of SSR504734 was studied using human liver microsomes (HLMs) provided by Sigma-Aldrich. The hepatotoxicity and neurotoxicity were estimated in cellular models with the use of hepatoma HepG2 and neuroblastoma SH-SY5Y cell lines to perform the preliminary safety tests. The cells were incubated with SSR504734 at the concentration range of 0.1–100 μM. 1 μM cytostatic drug doxorubicin (DX) was used as the reference.

[9] = test system: hepatoma HepG2 cells; assay: Hepatotoxicity, HepG2 cell viability; assay type: cell-based
Protocol: as §9
(§10) Figure 8 Effect of cytostatic drug doxorubicin (DX) and SSR504734 on (A) hepatoma HepG2 and (B) neuroblastoma SH-SY5Y cell lines viability after 72 h of incubation at 37 °C, 5% CO2. Data are expressed as means ± SD. Statistical analysis: ****p < 0.0001 vs negative control −1% DMSO in growth media (one-way ANOVA, followed by Dunnett’s post hoc test).
(§11) Figure S8. The effect of cytostatic drug doxorubicin and SSR504734 on (A) hepatoma
(§12) HepG2 and (B) neuroblastoma SH-SY5Y cell line viability after 72 h of incubation at 37 °C,
(§13) 5% CO2. The IC50 values were calculated by GraphPad Prism 8.0.
(§14) (1 picture or pasted object on this page, not shown here)

[10] = test system: neuroblastoma SH-SY5Y cells; assay: Neurotoxicity, SH-SY5Y cell viability; assay type: cell-based; conditions: Homo sapiens; SH-SY5Y, 72 h of incubation
Protocol: as §9, §10, §11, §12, §13, §14

[11] = test system: i.v. PTZ-induced seizures; conditions: cited from earlier work
[12] = test system: GlyT1; conditions: read-out: IC50 (competitive inhibitor of GlyT1); cited from earlier work
[13] = target: T1, rat GlyT1 (Rattus norvegicus, UniProt P28572); assay: GlyT1 radioligand binding ([3H]glycine, rat brain cortex, Eurofins Panlabs); conditions: rat brain cortex; read-out: IC50 (reference GlyT1 inhibitor in this testing system)
T1 construct: tissue Eurofins Panlabs Discovery Services Taiwan, Ltd. (ran the assay); host or cells: Wistar rat brain cortex
T1 sequence (P28572 1-638): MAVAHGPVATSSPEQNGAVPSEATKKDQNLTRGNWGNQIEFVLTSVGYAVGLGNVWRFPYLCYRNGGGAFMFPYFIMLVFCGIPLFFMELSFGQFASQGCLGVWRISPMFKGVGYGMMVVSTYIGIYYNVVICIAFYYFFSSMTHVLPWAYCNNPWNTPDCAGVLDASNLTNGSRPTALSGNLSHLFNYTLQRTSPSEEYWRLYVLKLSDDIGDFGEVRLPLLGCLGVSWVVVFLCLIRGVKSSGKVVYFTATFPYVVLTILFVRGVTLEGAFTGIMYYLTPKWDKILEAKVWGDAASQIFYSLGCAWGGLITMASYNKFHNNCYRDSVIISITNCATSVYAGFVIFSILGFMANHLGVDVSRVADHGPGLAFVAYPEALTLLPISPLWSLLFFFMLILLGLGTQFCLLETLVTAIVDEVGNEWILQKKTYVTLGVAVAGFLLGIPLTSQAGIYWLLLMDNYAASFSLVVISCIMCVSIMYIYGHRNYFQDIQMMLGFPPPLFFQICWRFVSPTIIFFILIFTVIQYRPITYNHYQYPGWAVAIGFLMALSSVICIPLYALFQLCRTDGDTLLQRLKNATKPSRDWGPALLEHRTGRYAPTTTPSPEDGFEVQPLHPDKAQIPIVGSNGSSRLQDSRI

Compound: Cc1cccc(C)c1C(=O)N[C@@H](c1ccccc1)C1(N(C)C)CCCC1 [GSK931145]
effect on threshold for tonic hindlimb extension [1]: strong, dose-dependent increase

Compound: CN(CCOc1ccc(-c2ccc3c(c2)OCO3)cc1C(C)(C)C)CC(=O)O [LY2365109]
effect on seizure thresholds ([2]; MEST- and PTZ-induced seizure tests, mice): increased seizure thresholds

Compound: CN(CCC(Oc1ccc(-c2ccccc2)cc1)c1ccc(F)cc1)CC(=O)O (stereo not drawn) [NFPS]
effect on threshold for tonic hindlimb extension [1]: strong, dose-dependent increase

Compound: COc1ccc2c(c1)CC[C@H](CN(C)CC(=O)O)[C@@H]2c1ccccc1 [Org25935]
effect on threshold for tonic hindlimb extension [1]: strong, dose-dependent increase

Impairment of motor coordination ([3]; 14-day treatment): 0% | Impairment of motor coordination ([3]; acute treatment): 8.33% | Neuromuscular strength ([5]; 14-day treatment): 22.27 ± 4.84 mN/kg | Neuromuscular strength ([5]; acute treatment): 29.73 ± 4.60 mN/kg
Compound: CCCC(CCC)C(=O)O [VPA, sodium valproate]
fold increase of seizure threshold ([4]; 14-day administration): 1.7 fold | fold increase of seizure threshold ([4]; single administration, 15 min before test): 1.8 fold | effect on thresholds for myoclonic twitch, generalized clonus and forelimb tonus ([6]; 14-day treatment i.p.): significantly increased the thresholds | effect on thresholds for myoclonic twitch, generalized clonus and forelimb tonus ([6]; single administration i.p.): significantly increased the thresholds | effect on current intensity necessary to induce psychomotor seizures ([7]; 14-day administration i.p.): marked increase | effect on current intensity necessary to induce psychomotor seizures ([7]; single administration i.p.): marked increase

Compound: Cn1c(=O)c2c(ncn2C)n(C)c1=O [caffeine]
Papp ([8]; PAMPA, read-out: PAMPA Pe): 7.77 ± 2.3 ×10⁻⁶ cm/s | PAMPA Pe [8]: 7.77 10^–6 cm/s

Compound: COc1cccc2c1C(=O)c1c(O)c3c(c(O)c1C2=O)C[C@@](O)(C(=O)CO)C[C@@H]3O[C@H]1C[C@H](N)[C@H](O)[C@H](C)O1 [doxorubicin]
toxicity to HepG2 cells ([9]; 1 μM, 72 h): highly toxic | IC50 ([9]; Homo sapiens, HepG2, 72 h of incubation): 1.91 µM | IC50 [10]: 0.3 µM

IC50 [13]: 55.8 µM
Compound: CNCC(=O)O [sarcosine]
effect in the i.v. PTZ test [11]: devoid of any effect | IC50 [12]: 91 µM | effect on threshold for tonic hindlimb extension [2]: increased the threshold | effect on threshold for tonic hindlimb extension ([2]; listed as Sarcosine): raised the threshold
